Test results from patent US10220029B2, “Pharmaceutical composition comprising glutarimide derivatives and use thereof in the treatment of eosinophilic diseases” (OBSCHESTVO S ORGANICHENNOI OTVETSTVENNOSTIYU …, priority 2013, dated 2019).
Marks after values point to notes of the source that are not given here.

Columns and labels:
[1] = test system: model of bronchial asthma in guinea pigs; test: Content of cell elements in BAL in the model of bronchial asthma in guinea pigs; type: in vivo, guinea pig; conditions: Table 4; 14 mg/kg, 10 times of administration; n = 9
Method: Bronchial asthma in guinea pigs was induced by a standard method [Ricciardolo F L, Nijkamp F, De Rose V, Folkerts G. The guinea pig as an animal model for asthma// Current Drug Targets. 2008 June; 9(6):452-65]. The animals were immunized by one parenteral administration of 0.5 mL of a solution comprising 100 μg/mL ovalbumin (Sigma) and 100 mg/mL aluminium hydroxide. Intact animals received a physiological saline solution in an amount of 0.5 mL.
On days 29, 30 and 31, hyperactivity of the respiratory airways was provoked by inhalation administration of ovalbumin in ascending concentrations of 0.1, 0.3, and 0.5 mg/mL on days 1, 2, and 3 of the provocation, respectively. The inhalation lasted 5 minutes or until asphyxia symptoms became apparent (fall to one side). On day 32, the animals received a challenging dose of ovalbumin (1 mg/mL) for 5 minutes, while assessing a bronchospastic reaction.
The studied compounds were administered to the animals once daily every day for 6 or 10 days; the administration was terminated two days before the administration of the challenging dose of antigen.
The bronchoalveolar lavage (BAL) and cardiac cavity blood were derived from the animals 24 hours after administration of the challenging dose. The BAL was collected under anesthesia by lavaging the lungs with 5 mL of a physiological saline solution heated to 37° C. through the trachea, using a syringe dosing device.
The absolute number of cell elements in 1 μL of the lavage (cytosis) was counted in the bronchoalveolar lavage, using the Goryaev camera. Then, the BAL was centrifuged at 200 g for 10 minutes. The residue was used to prepare swabs that were fixed in methanol and stained according to Romanovsky-Giemsa to count endopulmonary cytogram.
The study comprised 3 experiments, wherein the first one was directed to the evaluation of the effect of claimed compounds 1-6 on the cell composition of the BAL, the second and the third experiments were aimed at evaluating the effect of compounds 1 and 2 on the cell composition of the BAL, the cell composition of the blood, and on the bronchospasm severity.

[2] = test system: model of sephadex-induced eosinophilic lung inflammation in rats; test: Content of cell elements in BAL in the model of sephadex-induced eosinophilic lung inflammation in rats; type: in vivo, male Wistar rats; conditions: Table 9, four times, BAL 48 hours after sephadex, n = 7
Method: The model of sephadex-induced eosinophilic lung inflammation in rats was realized by a standard method [Evaldsson C, Rydén I, Uppugunduri S. Isomaltitol exacerbates neutrophilia but reduces eosinophilia: new insights into the sephadex model of lung inflammation//Int Arch Allergy Immunol. 2011; 154(4):286-94]. Sephadex G-200 (Pharmacia, Sweden) was administered one time by inhalation to male Wistar rats at a dose of 5 mg/kg. The studied compounds were administered to the animals by the intragastric route four times: 24 hours and 1 hour before and 24 hours and 45 hours after administration of sephadex. The reference preparation, budesonide, was administered according to the same scheme, by inhalation at a dose of 0.5 mg/kg. Bronchoalveolar lavage was taken 48 hours after the inhalation of sephadex, and the total lymphocyte count and leukocyte formula in the lavage were determined. The number of rats in a group was 7 to 10.

[3] = test system: model of allergic rhinitis in guinea pigs; test: Content of cell elements in the nasal lavage in the model of allergic rhinitis in guinea pigs; type: in vivo, guinea pig; conditions: n = 8
Method: (§1) The model of allergic rhinitis in guinea pigs was realized by a standard method [Vishnu N. Thakare, M. M. Osama, Suresh R. Naik. […] 2013 September; 17(1):18-25].
(§2) Guinea pigs (250-300 g) were immunized with 4-time (on days 0, 7, 14, and 21) intragastric administration of ovalbumin (100 μg/pig) and aluminium hydroxide (5 mg/pig), both of which were diluted and suspended in a physiological saline solution. […], a solution of ovalbumin (60 mg/mL) was administered intranasally to each nostril of the animals at a dose 20 μL. On day 35, the animals received subcutaneously an ovalbumin solution (200 μg/mL, 25 μL); the animal back was previously shaved in the site of administration. Swelling and redness at the injection site served as a support of sensibilisation. On day 42 of the study, an ovalbumin solution (60 mg/mL, 20 μL/nostril) was administered intranasally. A group of pseudoimmunized animals was formed to control the formation of exactly allergic inflammation: on days 0, 7, 14, and 21, the pigs received a solution of aluminium hydroxide (5 mg/pig), and on days 28 and 35, they received a physiological saline solution, and on day 42, a solution of ovalbumin (60 mg/mL, 20 μL/nostril).
(§3) The studied compounds (14 mg/kg) were administered 3 times by the intragastric route: 48, 24, and 1 hour before the last administration of ovalbumin. The reference preparation, dexamethasone, was administered one time by the intragastric route, 3 hours before the last intranasal administration of ovalbumin.
(§4) Clinical manifestations, such as the number of sneezes and nose scratchings, were registered for 2 hours after the last administration of ovalbumin. Nasal lavage was taken 24 hours after the last administration of ovalbumin, and in this lavage, the total lymphocyte count and leukocyte formula were determined. The number of guinea pigs in a group was 8.

[4] = test system: model of allergic rhinitis in guinea pigs; test: Clinical manifestations of allergic rhinitis in guinea pigs (sneezes, nose scratchings); type: in vivo, guinea pig; conditions: 2 hours after last ovalbumin, n = 8
Method: as §1, §2, §3, §4

[5] = test system: model of atopic dermatitis in mice; test: Response index in DNCB-induced atopic (allopathic) dermatitis in mice; type: in vivo, male Balb/c mice; conditions: 10 mg/kg intragastric once daily on days 8-17 (reference preparation); n = 12
Method: The model of allopathic dermatitis was realized by a standard method [Mechanism of dinitrochlorobenzene-induced dermatitis in mice: role of specific antibodies in pathogenesis//PLoS One. 2009; 4(11)].
On days 0 and 12 of the study, 100 μL of a 2% solution of 1-chloro-2,4-dinitrobenzene (DNCB, Sigma-Aldrich, US) in 95% ethanol was applied to shaved sites in the backs of male Balb/c mice. On day 17 of the study, to the right “studied” ear of the animals, 20 μL of the alcohol solution of 2% DNCB was applied two times with a one-hour interval. The studied compound and the reference preparation, dexamethasone, were administered by the intragastric route once daily on days 8-17 of the study.
On day 18 of the study, the animals were euthanized in a CO2 camera. The weights of the “studied” and “control” ears were measured. A response index (RI) expressed in percentage of a difference in the weights of the “studied” and “control” ears was calculated.

[6] = test system: model of leukotriene-induced eosinophilic lung inflammation in guinea pigs; test: Content of cell elements in BAL in the model of leukotriene-induced eosinophilic lung inflammation in guinea pigs; type: in vivo, guinea pig; conditions: 0.8 mg/kg intragastric, one time one hour before LTD4 (reference preparation); BAL 48 hours after LTD4; n = 8
Excerpt: The model of leukotriene-induced eosinophilic lung inflammation in guinea pigs was realized by a standard method [Underwood DC1, Osborn R R, Newsholme S J, Torphy T J, Hay D W. Persistent airway eosinophilia after leukotriene (LT) D4 administration in the guinea pig: modulation by the LTD4 receptor antagonist, pranlukast, or an interleukin-5 monoclonal antibody// Am J Respir Crit Care Med. 1996 October; 154(4 Pt 1):850-7]. A solution of leukotriene D4 (LTD4, Cayman Chemical, USA) at a concentration of […] (a flow rate of 250 mL/hr) was inhaled to male guinea pigs (250-300 g) under conditions of a double-chamber plethysmograph (Emka Technologies, France) for one minute. The studied compound was administered to the animals by the intragastric route four times: 24 hours and 1 hour before and 24 hours and 45 hours after the inhalation of LTD4. The reference preparation, montelukast (0.8 mg/kg), was administered one time by the intragastric route one hour before the inhalation of LTD4. Bronchoalveolar lavage was taken 48 hours after the inhalation of LTD4, and the total lymphocyte count and leukocyte formula were determined in the lavage. The number of guinea pigs in a group was 8.

[7] = 14 mg/kg intragastric, 3 times, nasal lavage 24 hours after last ovalbumin
[8] = 5 mg/kg intragastric, one time 3 hours before last ovalbumin (reference preparation)
[9] = 5 mg/kg intragastric, one time (reference preparation)

In the case of `Cn1cnc(CCN2C(=O)CCCC2=O)c1` [Compound 5], the “Eosinophils in BAL” value [1] is reported as 1.61 ± 0.86*& 10^9/L, the “Lymphocytes in BAL” value [1] is reported as 1.35 ± 0.34* 10^9/L and the “Monocytes in BAL” value [1] is reported as 0.84 ± 0.23* 10^9/L. The “Neutrophils in BAL” value [1] was 1.05 ± 0.33 10^9/L, the “Eosinophils, content of cell elements in 1 μL of BAL” value (“Eosinophils, content … of BAL” for short) ([2]; 1.8 mg/kg intragastric) was 147 ± 44& in 1 μL of BAL and the “Leukocytes, content of cell elements in 1 μL of BAL” value (“Leukocytes, content … of BAL” below) ([2]; 1.8 mg/kg intragastric) was 2064 ± 257& in 1 μL of BAL. For the same molecule, the “Lymphocytes, content of cell elements in 1 μL of BAL” value (from here on “Lymphocytes, content … of BAL”) ([2]; 1.8 mg/kg intragastric) was 66 ± 26 in 1 μL of BAL, the “Macrophages, content of cell elements in 1 μL of BAL” value (“Macrophages, content … of BAL” below) ([2]; 1.8 mg/kg intragastric) was 1576 ± 93& in 1 μL of BAL and the “Neutrophils, content of cell elements in 1 μL of BAL” value (shortened to “Neutrophils, content … of BAL”) ([2]; 1.8 mg/kg intragastric) was 385 ± 57 in 1 μL of BAL. The “Eosinophils, content … of BAL” value ([2]; 18 mg/kg intragastric) was 34 ± 15& in 1 μL of BAL, the “Leukocytes, content … of BAL” value ([2]; 18 mg/kg intragastric) was 2189 ± 222& in 1 μL of BAL and the “Lymphocytes, content … of BAL” value ([2]; 18 mg/kg intragastric) was 121 ± 48 in 1 μL of BAL. The “Macrophages, content … of BAL” value ([2]; 18 mg/kg intragastric) was 1331 ± 66 & in 1 μL of BAL, the “Neutrophils, content … of BAL” value ([2]; 18 mg/kg intragastric) was 605 ± 124 in 1 μL of BAL and the “Eosinophils, content of cell elements in 1 μL of nasal lavage” value [3, 7] was 575 ± 143& in 1 μL of nasal lavage. The “Leukocytes, content of cell elements in 1 μL of nasal lavage” value [3, 7] was 1071 ± 233& in 1 μL of nasal lavage, the “Lymphocytes, content of cell elements in 1 μL of nasal lavage” value [3, 7] was 9 ± 7 in 1 μL of nasal lavage and the “Macrophages, content of cell elements in 1 μL of nasal lavage” value [3, 7] was 198 ± 54 in 1 μL of nasal lavage. The “Neutrophils, content of cell elements in 1 μL of nasal lavage” value [3, 7] was 344 ± 50& in 1 μL of nasal lavage, the “Number of nose scratchings/2 hours” value ([4]; 14 mg/kg intragastric, 3 times) was 19.1 ± 4.9 & and the “Number of sneezes/2 hours” value ([4]; 14 mg/kg intragastric, 3 times) was 7.1 ± 1.3 &.

In the case of `C[C@@H]1C[C@H]2[C@@H]3CCC4=CC(=O)C=C[C@]4(C)[C@@]3(F)[C@@H](O)C[C@]2(C)[C@@]1(O)C(=O)CO` [Dexamethasone, dexamethasone, reference compound], the “Response index (%)” value [5] is reported as 65.6 ± 8*& %, the “Eosinophils, content of cell elements in 1 μL of nasal lavage” value [3, 8] is reported as 365 ± 90& in 1 μL of nasal lavage and the “Leukocytes, content of cell elements in 1 μL of nasal lavage” value [3, 8] is reported as 1186 ± 142& in 1 μL of nasal lavage. The “Lymphocytes, content of cell elements in 1 μL of nasal lavage” value [3, 8] was 5 ± 3 in 1 μL of nasal lavage, the “Macrophages, content of cell elements in 1 μL of nasal lavage” value [3, 8] was 296 ± 71 in 1 μL of nasal lavage and the “Neutrophils, content of cell elements in 1 μL of nasal lavage” value [3, 8] was 328 ± 47& in 1 μL of nasal lavage. The “Number of nose scratchings/2 hours” value [4, 9] was 16.7 ± 1.8*& and the “Number of sneezes/2 hours” value [4, 9] was 7.9 ± 0.8 &.

For `CC(C)(O)c1ccccc1CC[C@@H](SCC1(CC(=O)O)CC1)c1cccc(/C=C/c2ccc3ccc(Cl)cc3n2)c1` [Montelukast, montelukast, reference compound], the “Eosinophils, content … of BAL” value [6] was 618 ± 116*& in 1 μL of BAL, the “Leukocytes, content … of BAL” value [6] was 24065 ± 415*& in 1 μL of BAL and the “Lymphocytes, content … of BAL” value [6] was 96 ± 39 in 1 μL of BAL. For the same molecule, the “Macrophages, content … of BAL” value [6] was 1519 ± 263 in 1 μL of BAL and the “Neutrophils, content … of BAL” value [6] was 173 ± 41 in 1 μL of BAL.
